Measurements from patent publication US11352371B2, “Thienopyrimidine derivatives as ACC inhibitors and uses thereof” (Gilead Sciences, Inc., priority 2019, dated 2022).

How the values were obtained:
[1] = Rat liver/plasma ratio determination; format: in vivo, male Sprague-Dawley (SD) rats; conditions: male SD rats, single oral dose 5 mg/kg or 10 mg/kg
Method: Liver to plasma (L/P) ratios of certain example compounds were determined in male Sprague-Dawley (SD) rats 2 hours and 24 hours after their administration.
The in vivo phases of the rat L/P ratio determinations for example compounds were conducted at Covance Laboratories (Madison, Wis.) or Charles River Laboratories (Worcester, Wash.). Animals were housed and handled in accordance with the Guide for the Care and Use of Laboratory Animals, Institute of Laboratory Animal Resources. The protocols were reviewed and approved by Institutional Animal Care and Use Committees (IACUC). Male Sprague-Dawley (SD) rats weighing approximately 300 g were fasted overnight prior to dosing and up to 4 hours after dosing. Each example compound was dosed at a single dose at 5 mg/kg or 10 mg/kg orally by gavage to male SD rats (n=3 rats/group). The aqueous formulation contained ethyl alcohol and polyethylene glycol 300. Approximately 100 μL plasma and 0.5 g liver samples were collected from each animal either 2 hours or 24 hours after dosing. The liver samples were homogenized by hard tissue homogenizer probes (Omni International, Kennesaw, Ga.) with 4× extraction buffer. For LC-MS/MS analysis, plasma and liver samples were prepared through protein precipitation extraction and analyzed on a Scitex API 5500 or 6500 LC-MS/MS instrument (Applied Biosystems, Foster City, Calif.). Analyte was eluted on a 1.7 μm 50×2.1 mm Acquity UPLC BEH C18 column (Waters, Milford, Mass.) using mobile phase containing 0.1% formic acid and a linear gradient from 55% to 95% acetonitrile at a flow rate of 800 μL/min. A liver/plasma ratio for each compound was calculated using the liver and plasma concentrations at the corresponding time point (2 hours or 24 hours). Noncompartmental pharmacokinetic parameters were calculated using Phoenix 32 (Pharsight Corporation, Mountain View, Calif.).
To assess the liver loading potential of the compounds, rat liver/plasma ratios (Rat L/P Ratio) values were determined for example compounds and are listed below in Table 1 for 2 hour and 24 hour timepoints (Rat L/P Ratio (2h/24h)).

[2] = test system: De Novo Lipogenesis (DNL) in liver; assay: In vivo De Novo Lipogenesis study; set-up: species or system Male Sprague Dawley (SD) rats; conditions: Rattus norvegicus; male SD rats, single p.o. dose, acetate i.p. 3h post-dose, livers collected 1h later; read-out: effective dose that decreased in vivo DNL by 50% (ED50)
Method: The DNL inhibitory activity of the compound of Example 1 was assessed in vivo as follows.
The studies were performed at Covance Laboratories (Madison, Wis.) in compliance with Institutional Animal Care and Use Committee protocols. Male Sprague Dawley (SD) rats were purchased from Envigo RMS, INC and were acclimatized for 7 days prior to study initiation. Animals were provided ad libitum access to food and water for the duration of the study. On the day of the experiment, animals were randomized into dose groups (n=6 rats/group) based on body weight and received a single p.o dose of vehicle (0.1% Tween 80 in water, pH 7.5-8.0) or a dose range of the compound of Example 1 (0.1 μg/kg-1 mg/kg). 3h post-dose (Example 1), the animals received a single i.p bolus of […] (Perkin Elmer, 32 μCi/animal) and were sacrificed 1h later, and livers were collected for DNL analysis. An approx. 0.75 g piece of liver was saponified at 70° C. for 120 min in 1.5 mL of 2.5M NaOH followed by addition of 2.5 mL of ethanol, vigorous mixing. […] Residual ether fractions were dissolved in at least 5 mL of Ultima Gold XR scintillation fluid and analyzed by liquid scintillation counting (LSC). The resulting dpm ([…]) values were normalized to tissue weight and the data were expressed as a percent of vehicle. […]

[3] = Liver partitioning / plasma PK study with and without rifampicin (pan-OATP inhibitor); format: in vivo, cynomolgus monkeys
Method: (§1) To further investigate the liver partitioning properties of the compound of Example 1, the compound was co-administered with rifampicin (RIF, pan-OATP inhibitor) in cynomolgus monkeys in vivo and hepatic uptake experiments were performed in monkey hepatocytes in vitro. […] Therefore the coadministration experiments as described below in more detail were conducted to administer Example 1 compound orally (5 mg/kg) in the absence and presence of IV administration of RIF (30 mg/kg).
(§2) To assess the OATP (organic anion transporting polypeptides)-mediated liver specific delivery of the Example 1 compound, plasma pharmacokinetics (PK) was evaluated in cynomolgus monkeys. The in-life phase of the cyno PK studies was conducted at Covance Laboratories (Madison, Wis.). Animals were housed and handled in accordance with the Guide for the Care and Use of Laboratory Animals, Institute of Laboratory Animal Resources. The protocols were reviewed and approved by the Institutional Animal Care and Use Committees (IACUC). Male Cynomolgus monkeys weighing approximately 3 kg were used for the in-life portion of the PK studies. The animals were fasted overnight prior to dosing and up to 4 hours after dosing. The animals were administered with the test compound (Example 1) alone or coadministered with 30 mg/kg rifampicin prior to test compound administration at 5 mg/kg via oral gavage (3 monkeys per group). The aqueous formulation contains dimethyl sulfoxide, kolliphor, labrasol and propylene glycol. Approximately 0.5 mL blood samples were collected from each animal and analyzed for test compound (Example 1) concentrations. For LC-MS/MS analysis, plasma samples were prepared through protein precipitation extraction and analyzed on a Sciex API 5500 LC-MS/MS instrument (Applied Biosystems, Foster City, Calif.). Analyte was eluted on a 1.7 μm 50×2.1 mm Acquity UPLC BEH C18 column (Waters, Milford, Mass.) using mobile phases containing 0.1% formic acid and a linear gradient from 60% to 95% acetonitrile at a flow rate of 800 μL/min. Noncompartmental pharmacokinetic parameters were calculated using Phoenix 32 (Pharsight Corporation, Mountain View, Calif.). […]

OATP = assay: as above; format: in vivo, cynomolgus monkeys; conditions: male, cynomolgus monkey, plasma, with rifampicin 30 mg/kg IV (pan-OATP inhibitor), cynomolgus monkeys, 5 mg/kg oral, Pretreatment with Rifampicin 30 mg/kg
Method: as §1, §2

[4] = Preliminary study of systemic blood clearance after intravenous administration; format: in vivo; conditions: monkeys, preliminary studies
[5] = decrease (↓) with rifampicin pretreatment vs no pretreatment
[6] = increase (↑) with rifampicin pretreatment vs no pretreatment
[7] = male, cynomolgus monkey, plasma, cynomolgus monkeys, 5 mg/kg oral, No-Pre-treatment

L/P Ratio (2 h) ([1]; liver to plasma concentration 2 hours after dosing): 520
L/P Ratio (24 h) ([1]; liver to plasma concentration 24 hours after dosing): 1526
plasma exposures with RIF treatment relative to monkeys not treated with RIF ([3]; 5 mg/kg oral, RIF 30 mg/kg IV): significantly increased
CL/F Fold-Change [3, 5]: ↓ 299
Vz/F Fold-Change [3, 5]: ↓ 165
AUC Fold-Change [3, 6]: ↑ 165
Cmax Fold-Change [3, 6]: ↑ 86
AUC [3, 7]: 0.294 µM·h
CL/F [3, 7]: 748 mL/min/kg
Cmax [3, 7]: 0.162 µM
Vd/F ([3]; male, cynomolgus monkey, plasma, cynomolgus monkeys, 5 mg/kg oral, No-Pre-treatment, read-out: Vz/F): 72.7 L/kg
AUC (OATP): 48.5 µM·h
CL/F (OATP): 2.5 mL/min/kg
Cmax (OATP): 14 µM
Vd/F (OATP; read-out: Vz/F): 0.44 L/kg
systemic blood clearance [4]: higher than hepatic blood flow
Compound: COc1ccccc1[C@H](Cn1c(=O)n(C(C)(C)C(=O)NS(=O)(=O)C2(C)CC2)c(=O)c2c(C)c(-c3ncco3)sc21)O[C@@H]1C[C@H]2CC[C@@H](C1)O2 [Example 1, 2-(1-((R)-2-(((1R,3s,5S)-8-oxabicyclo[3.2.1]octan-3-yl)oxy)-2-(2-methoxyphenyl)ethyl)-5-methyl-6-(oxazol-2-yl)-2,4-dioxo-1,4-dihydrothieno[2,3-d]pyrimidin-3(2H)-yl)-2-methyl-N-((1-methylcyclopropyl)sulfonyl)propanamide]
ED50 [2]: 0.08 mg/kg
